Results reported in US20110176998A1, “IMAGING AND THERAPY OF VIRUS-ASSOCIATED TUMORS” (THE JOHNS HOPKINS UNIVERSITY, priority 2007, published 2011).
“Also recorded” adds a separate entry of the source. Read-outs that look alike come from different tables or passages of the source.

Legend:
[1] = test system: EBV viral DNA copy number; test: real-time PCR for EBV viral DNA copy number (viral replication); format: cell-based, Epstein-Barr virus; settings: for lytic protein expression or viral replication: B cells or gastric epithelial cells (SNU 719)
Method: Genomic DNA from treated cells were extracted with the QIAamp DNA mini kit (Qiagen, CA) according to the manufacturer's instructions. PCRs were set up in a volume of 50 μL with a TaqMan PCR core reagent kit (Perkin-Elmer Corp., Branchburg, N.J.). Fluorescent probes were custom synthesized by Perkin-Elmer Applied Biosystems. PCR primers were synthesized by Gibco BRL (Frederick, Md.). Each reaction contained 5 μL of 10× buffer A (4 mM MgCl2), amplification primers (300 nM), fluorescent probe (25 nM), dATP, dCTP, and dGTP (200 μM each), dUTP (400 uM), 1.25 U of AmpliTaq Gold, and 0.5 U of AmpErase uracil N-glycosylase. Extracted genomic DNA was used for amplification. DNA amplification was carried out in a 96-well reaction plate in a Perkin-Elmer Applied Biosystems 7700 sequence detector. Each sample was analyzed in duplicate, and multiple negative water blanks were included in each analysis. A calibration curve was run in parallel and in duplicate with each analysis, with DNA extracted from the EBV-positive cell line Namalwa as a standard.
The EBV genome was quantified by real-time PCR with the ICycler system (Biorad, Hercules, Calif.). Template DNA was extracted with a mini blood DNA Kit (Qiagen, Valencia, Calif.). […]. A calibration curve was run in parallel and in duplicate with each analysis, using DNA extracted from the diploid EBV-positive cell line Namalwa containing two integrated viral genomes per cell as a standard. Amplification data were collected with an MyiQ single color real-time PCR Detector (Biorad) and analyzed with the MyiQ software developed by Biorad.

BZLF1 protein (ZTA) = test: Western blot / immunoblot for ZTA (BZLF1 protein) in EBV positive cell lines; format: cell-based, Epstein-Barr virus; settings: for BZLF protein expression: SNU719, AKATA, Raji, LCL and Rael cells
Method: To detect expression of the EBV-TK or EBV-ZTA, total cell protein was first extracted by treating cells with lysis buffer (0.05 M Tris, pH 7.6, 0.15 M NaCl, 1% triton-X 100, 2 mM EDTA) containing protease inhibitors for 10 minutes at 4° C. The following reagents were added to 1 mL of lysis buffer: 2 μL leupeptin (5 mg/mL), 1 μL 0.2 M Na3VO4, 1 μL NaF, 1 μL aprotinin (10 mg/ml), 1 μL, pepstatin (2 mM), and 10 μL PMSF (100 mM) for 10 minutes at 4° C. Following centrifugation, the supernatant was collected and stored at −80° C. Protein concentration was determined with the BCA Protein Assay Kit (Pierce, Rockford, Ill.) according to the manufacturer's instructions. A 10 μg aliquot of total cellular protein was fractionated on a 7.5% SDS-polyacrylamide gel. Proteins were transferred to PROTRAN nitrocellulose membrane (Schleicher & Schuell, Keene, N.H.). The membranes were blocked with 5% blotting grade non-fat dry milk (Bio-rad, Hercules, Calif.) in PBS with 0.1% TWEEN-20 (PBS-T) at 4° C. overnight. The membranes were then washed with PBS-T twice followed by incubation with 1/1,000-diluted rabbit anti-TK sera from a rabbit immunized with a synthetic EBV-TK peptide ([…]) or anti-ZTA monoclonal antibody (Argene, North Massapequa, N.Y.) at room temperature for 1 hour. After washing, the membranes were incubated with HRP-conjugated goat anti-rabbit IgG antibodies or HRP-conjugated goat anti-mouse IgG antibodies (Amersham Pharmacia Biotech, Piscataway, N.J.) at a 1/5,000 dilution in PBS-T at room temperature for 1 hour. The membranes were washed twice and proteins were detected with ECL Western Blotting Detection reagents (Amersham Pharmacia Biotech). The membranes were exposed to X-OMAT film (Kodak, Rochester, N.Y.) at room temperature.
For lytic induction studies, cells were seeded at 10^6/ml, and treated with test compounds for 48 hours. Control untreated cells were incubated in parallel.
Cells were washed with PBS twice. Total cellular protein was extracted with lysis buffer. Proteins were electrophoresed in polyacrylamide and then transferred onto a PROTRAN nitrocellulose membrane (Schleicher&Schuell, Keene, N.H.). Blots were probed with primary antibody (Ab) overnight at 4° C. HRP-conjugated secondary Ab was added after washing and detected by an enhanced chemiluminescence system (ECL) (Amersham). The following antibodies were used: anti-ZTA (Argene), anti-f3-actin (Sigma), anti-mouse (Sigma).

Zta promoter = format: cell-based, Epstein-Barr virus; settings: for Zta promoter luciferase activity / induction of BZLF1 promoter: AGS cells; for known lytic inducer re-identified / hit in epithelial promoter reporter assay: library screen at 10 uM
[2] = test system: recombinant EBV encoding GFP (BX-1) in AKATA-BX1 cells; test: GFP whole virus assay in AKATA-BX1 cells; settings: for GFP signal: AKATA-BX1 cells
[3] = test system: CMV promoter driven GFP in Hela cells
[4] = test system: EBV-TK functional activity in Burkitt's lymphoma cell lines; test: in vitro [14C]FIAU cell uptake after bortezomib; format: cell-based, Epstein-Barr virus
Method: For in vitro [^14C]FIAU uptake studies, cells were seeded at 5×10^5 cells/mL and incubated with 10 nM bortezomib at 37° C. for 6-12 hrs. They were washed and then incubated with 0.04 μCi/mL [^14C]FIAU at 37° C. for 2, 4, 8, 24, 48, 72 hours. Cells were pelleted by centrifugation and washed with unlabeled FIAU. Radioactivity of the isolated cells and pooled medium with washes were then counted separately by scintillation counting with a Beckman Coulter LS5000TA scintillation counter (Fullerton, Calif.). Total cellular protein was extracted by incubating in lysis buffer (0.05 M Tris, pH 7.6, 0.15 M NaCl, 1% triton-X 100, 2 mM EDTA) and cell debris were removed by centrifugation. The supernatant was collected and the protein concentration was determined with the BCA protein assay kit (Pierce, Rockford, Ill.) according to the manufacturer's instructions. Cell uptake was expressed as the accumulation ratio, that is, the counts per minute per gram (cpm/g) of cells divided by the cpm/g (mL) of medium.

[5] = administered to patients for imaging; cited from earlier work
EBV-TK = test: immunoblot for EBV-TK expression; format: cell-based, Epstein-Barr virus; settings: Rael cells; immunoblot
Method: To detect expression of the EBV-TK or EBV-ZTA, total cell protein was first extracted by treating cells with lysis buffer (0.05 M Tris, pH 7.6, 0.15 M NaCl, 1% triton-X 100, 2 mM EDTA) containing protease inhibitors for 10 minutes at 4° C. The following reagents were added to 1 mL of lysis buffer: 2 μL leupeptin (5 mg/mL), 1 μL 0.2 M Na3VO4, 1 μL NaF, 1 μL aprotinin (10 mg/ml), 1 μL, pepstatin (2 mM), and 10 μL PMSF (100 mM) for 10 minutes at 4° C. Following centrifugation, the supernatant was collected and stored at −80° C. Protein concentration was determined with the BCA Protein Assay Kit (Pierce, Rockford, Ill.) according to the manufacturer's instructions. A 10 μg aliquot of total cellular protein was fractionated on a 7.5% SDS-polyacrylamide gel. Proteins were transferred to PROTRAN nitrocellulose membrane (Schleicher & Schuell, Keene, N.H.). The membranes were blocked with 5% blotting grade non-fat dry milk (Bio-rad, Hercules, Calif.) in PBS with 0.1% TWEEN-20 (PBS-T) at 4° C. overnight. […] The membranes were washed twice and proteins were detected with ECL Western Blotting Detection reagents (Amersham Pharmacia Biotech). […]

EBV(+) Akata cells = test: entry of EBV(+) Akata cells into the lytic cycle; settings: 20 nM, 48 hours
[6] = test system: EBV(+) Burkitt's lymphoma (Rael); test: tumor growth, EBV(+) Burkitt's lymphoma (Rael) xenografts; format: in vivo, SCID mice; settings: bortezomib without [131I]FIAU
Method: Therefore, an evaluation of a therapeutic isotope was carried out. As described above, SCID mice engrafted with EBV Burkitt's lymphoma xenografts received either buffer or bortezomib followed the next day by treatment with [^131I]FIAU or no treatment. […] Thus, bortezomib allowed targeting of [^131I]FIAU with therapeutic effect. Other proteasome inhibitors are also likely to be active. Several are in clinical trial.
Biostatistics. Linear regression and curve fitting were undertaken carried using GraphPad Prism software version 5.00 for Windows, GraphPad Software, San Diego Calif. USA, www.graphpad.com.

Cc1oncc1C(=O)Nc1ccc(C(F)(F)F)cc1 [Leflunomide, N-(4′-trifluoromethylphenyl)-5-methylisoxazole-4-carboxamide]
lytic protein expression or viral replication [1]: don't induce | BZLF protein expression (BZLF1 protein (ZTA)): did not induce

CCCC(CCC)C(=O)O [valproate]
Zta promoter luciferase activity (Zta promoter): activated | Zta promoter luciferase activity (Zta promoter; listed as valproic acid): increased expression of luciferase in a dose-dependent manner

CCCC(=O)O [butyrate]
Zta promoter luciferase activity (Zta promoter): activated

CC(=O)O[C@H]1C(=O)[C@@]2(C)[C@H]([C@H](OC(=O)c3ccccc3)[C@]3(O)C[C@H](OC(=O)[C@H](O)[C@@H](NC(=O)c4ccccc4)c4ccccc4)C(C)=C1C3(C)C)[C@]1(OC(C)=O)CO[C@@H]1C[C@@H]2O [Taxol]
known lytic inducer re-identified / hit in epithelial promoter reporter assay (Zta promoter): verified

[Cl][Co][Cl] [Cobalt chloride]
known lytic inducer re-identified / hit in lymphoma cell line/whole virus assay ([2]; library screen at 10 uM): missed | known lytic inducer re-identified / hit in epithelial promoter reporter assay (Zta promoter): missed

Nc1ncn([C@H]2C[C@H](O)[C@@H](CO)O2)c(=O)n1 [5′-azadeoxycytidine, 5-Aza-2′-deoxycytidine]
GFP signal in control cell line [3]: not activated | GFP signal [2]: induced | Zta promoter luciferase activity (Zta promoter): did not activate; also recorded: not activated

O=c1[nH][14c](=O)n([C@@H]2O[C@H](CO)[C@@H](O)[C@@H]2F)cc1I [[^14C]FIAU, [2-^14C]2′-Fluoro-2′-deoxy-β-D-5-iodouracil-arabinofuranoside]
accumulation of [14C]FIAU ([4]; EBV(+) Akata and EBV(+) Rael cells following treatment with bortezomib): increased | accumulation of [14C]FIAU ([4]; EBV(−) Akata cells following treatment with bortezomib): not

COc1ccc(C=CC(=O)Nc2ccccc2C(=O)O)cc1OC [Tranilast, N-(3,4-dimethoxycinnamoyl)anthranilic acid]
lytic protein expression or viral replication [1]: don't induce | BZLF protein expression (BZLF1 protein (ZTA)): did not induce

CCCCCCCCCCCCCC(=O)O[C@@H]1[C@@H](C)[C@@]2(O)[C@@H](C=C(CO)C[C@]3(O)C(=O)C(C)=C[C@@H]23)[C@@H]2C(C)(C)[C@]12OC(C)=O [PMA]
known lytic inducer re-identified / hit in lymphoma cell line/whole virus assay ([2]; library screen at 10 uM): verified | known lytic inducer re-identified / hit in epithelial promoter reporter assay (Zta promoter): verified

CCCCCCCCCCCCCC(=O)O[C@@H]1[C@@H](C)[C@@]2(O)[C@@H](C=C(CO)C[C@]3(O)C(=O)C(C)=C[C@@H]23)[C@@H]2C(C)(C)[C@]12OC(C)=O [TPA, phorbol 12-tetradecanoate 13-acetate]
GFP signal in control cell line [3]: not activated | Zta promoter luciferase activity (Zta promoter): activated

Arginine butyrate
known lytic inducer re-identified / hit in lymphoma cell line/whole virus assay ([2]; library screen at 10 uM): missed | known lytic inducer re-identified / hit in epithelial promoter reporter assay (Zta promoter): missed

COc1cccc2c1C(=O)c1c(O)c3c(c(O)c1C2=O)C[C@@](O)(C(=O)CO)C[C@@H]3O[C@H]1C[C@H](N)[C@H](O)[C@H](C)O1 [Doxorubicin]
known lytic inducer re-identified / hit in lymphoma cell line/whole virus assay ([2]; library screen at 10 uM): verified | known lytic inducer re-identified / hit in epithelial promoter reporter assay (Zta promoter): verified

CN(Cc1cnc2nc(N)nc(N)c2n1)c1ccc(C(=O)N[C@@H](CCC(=O)O)C(=O)O)cc1 [Methotrexate]
known lytic inducer re-identified / hit in epithelial promoter reporter assay (Zta promoter): verified

CC(C(=O)O)c1ccc(N2Cc3ccccc3C2=O)cc1 (stereo not shown) [Indoprofen]
EBV viral replication ([1]; SNU719 cells): not viral replication; also recorded: did not induce | induction of BZLF1 promoter (Zta promoter; 10 μM): can induce | ZTA expression (BZLF1 protein (ZTA); SNU719 cells, high dose): induced

O=c1[nH]c(=O)n([C@@H]2O[C@H](CO)[C@@H](O)[C@@H]2F)cc1[125I] [[^124I]FIAU, 2′-fluoro-2′deoxy-1-beta-D-arabinofuranosyl-5-iodo-uracil]
effect on hepatic function [5]: without any adverse effect on hepatic function

CC[C@H](C)C(=O)O[C@H]1C[C@@H](C)C=C2C=C[C@H](C)[C@H](CC[C@@H]3C[C@@H](O)CC(=O)O3)[C@H]21 [lovastatin]
suppression hits in GFP whole virus assay ([2]; library screen at 10 uM, picked after day 10): suppression hits

N.N.[Cl][Pt][Cl] [cis-platinum]
known lytic inducer re-identified / hit in epithelial promoter reporter assay (Zta promoter): verified

CC(C)[C@H](CO)Nc1nc(Nc2cccc(Cl)c2)c2ncn(C(C)C)c2n1 [Purvalanol A]
inhibition of GFP signal after lytic induction ([2]; AKATA-BX1 cells induced with anti-IgG): specifically inhibited | inhibition of EBV immediate early gene ZTA expression (BZLF1 protein (ZTA); AKATA-BX1, anti-IgG induction): inhibited

CCCC(=O)[O-].[Na+] [Sodium butyrate]
known lytic inducer re-identified / hit in lymphoma cell line/whole virus assay ([2]; library screen at 10 uM): missed | known lytic inducer re-identified / hit in epithelial promoter reporter assay (Zta promoter): missed

O=c1[nH]cc(F)c(=O)[nH]1 [5-FU]
known lytic inducer re-identified / hit in epithelial promoter reporter assay (Zta promoter): verified

CC(C)C[C@H](NC(=O)[C@H](Cc1ccccc1)NC(=O)c1cnccn1)B(O)O [Bortezomib]
increase of EBV viral DNA copy number ([1]; Rael cells, 20 nM for 8 hours, DNA collected after 48 hours): 20 fold | viral copy number ([1]; real time DNA PCR, Rael): increased | EBV-TK expression (EBV-TK): induced | cells entered the lytic cycle (EBV(+) Akata cells): 67% | GFP signal [2]: dose dependent | GFP signal ([2]; 10 nM): induced GFP signal | EC50 for inducing lytic infection ([2]; GFP assay): nanomolar scale | known lytic inducer re-identified / hit in lymphoma cell line/whole virus assay ([2]; library screen at 10 uM): most prominent hit | tumor growth [6]: slowed tumor growth | Zta promoter luciferase activity (Zta promoter): increases in a bortezomib dose-dependent manner | induction of BZLF1 promoter (Zta promoter; 10 nM): induced | known lytic inducer re-identified / hit in epithelial promoter reporter assay (Zta promoter): most prominent hit | EC50 for inducing lytic infection (Zta promoter; luciferase assay): nanomolar scale | ZTA expression (BZLF1 protein (ZTA); Rael cells): induced
